Data reported in patent publication US8361988B2, “Nucleoside and nucleotide analogues with quaternary carbon centers and methods of use” (Institut de Recherches Cliniques de Montreal, priority 2007, dated 2013).

Legend:
[1] = target: Thermotoga maritima thymidine kinase (Thermotoga maritima, UniProt Q9WYN2); experiment: Phosphorylation assay (spectrophotometric coupled-enzyme), T. maritima TK; assay type: biochemical; details: substrate at 100 μM, 37° C., 1 mM ATP, triplicate
Experimental: Compounds of the invention were also tested in a phosphorylation assay using three deoxynucleoside kinases. The kinases include human dCK, which is responsible for the activation of numerous nucleoside analog prodrugs; Drosophila melanogaster dNK, which is the fastest known kinases with the broadest substrate specificity profile; and Thermotoga maritima thymidine kinase, which is a good surrogate for human thymidine kinase 1, a member of the distinct type II kinase subfamily. The compounds were at substrate concentration of 100 μM.
(§1) Kinetic assay. Substrate phosphorylation was determined using a spectrophotometric coupled-enzyme assay (Munch-Petersen et al. (2000) J. Biol. Chem. vol. 275p. 66′73-66′79; Schelling et al. (2001) Anal. Biochem vol. 295 p. 82-8′7). Briefly, the individual nucleosides at 100 μM were prepared in reaction buffer containing 50 mM Tris-HCl (pH 7.5), 0.1 M KCl, 5 mM MgCl2, 1 mM DTT, 1 mM ATP, 0.21 mM phosphoenolpyruvate, 0.18 mM NADH, and 2 units/ml pyruvate kinase and 2 units/ml lactate dehydrogenase (Roche Biochemicals, Indianapolis, Ind.). Assays were performed at 37° C. by measuring the absorbance change at 340 nm. The enzyme amount was adjusted to limit NADH turnover to 10% over the time of the experiment. All experiments were performed in triplicate.

[2] = target: T1, Drosophila melanogaster dNK (Drosophila melanogaster, UniProt Q9XZT6); experiment: Phosphorylation assay (spectrophotometric coupled-enzyme), D. melanogaster dNK; assay type: biochemical; details: substrate at 100 μM, 37° C., 1 mM ATP, triplicate
T1 sequence (Q9XZT6 1-250): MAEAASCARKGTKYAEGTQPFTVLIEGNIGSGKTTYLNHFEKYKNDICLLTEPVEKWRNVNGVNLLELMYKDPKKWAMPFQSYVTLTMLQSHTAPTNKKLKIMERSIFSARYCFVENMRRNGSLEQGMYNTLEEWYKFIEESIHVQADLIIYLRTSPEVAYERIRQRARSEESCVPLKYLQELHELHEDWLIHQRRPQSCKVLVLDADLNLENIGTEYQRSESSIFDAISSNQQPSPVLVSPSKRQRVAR
Experimental: Compounds of the invention were also tested in a phosphorylation assay using three deoxynucleoside kinases. […] The compounds were at substrate concentration of 100 μM.
as §1, with “Substrate phosphorylation was determined using a spectrophotometric coupled-enzyme assay (Munch-Petersen et al. (2000) J. Biol. Chem. vol. 275p. 66′73-66′79; Schelling et al. (2001) Anal. Biochem vol. 295 p. 82-8′7).” left out

[3] = in vitro; details: human, NCI H1395 cells
[4] = MTT cell proliferation assay, ZR-75-1; assay type: cell-based; details: human, ZR-75-1 cells, concentration causing 50% cell death of initial cell count over 24 hours, 1% DMSO
Experimental: (§2) The antitumor activities of the compounds of the invention were evaluated by a cellular proliferation assay. The MTT [3-(4,5-dimethylthiazol-2-yl)-2,5-diphenyltetrazolium bromide] cell proliferation assay, first described by Mosmann (Mosmann T., “Rapid colorimetric assay for cellular growth and survival: application to proliferation and cytotoxicity assays,” J. Immunol. Methods 1983 Dec. 16; 65(1-2):55-63, and incorporated by reference in its entirety) is based on the ability of active mitochondrial reductase enzymes from viable cells to cleave the tetrazolium rings of the pale yellow MTT. The cleavage reaction form a purple formazan crystals which is largely impermeable to cell membranes resulting in its accumulation within healthy cells. Solubilisation of the cells by addition of a detergent liberates and solubilizes the formazan crystals. The number of surviving cells is directly proportional to the level of the formazan product created. The color can then be quantified spectrophotometrically. The production of purple formazan in cells treated with a compound is measured relative to the production in control cells, and dose-response curves can be generated. This assay measures the cell proliferation rate and conversely, when metabolic events lead to apoptosis or necrosis, the reduction in cell viability, thus also allowing the evaluation of the cytotoxicity of the analogues synthesized in the laboratory.
(§3) For Tables 3 and 4, the assays were performed with 1% DMSO. The abbreviation “n.d.” means “not determined.” The values EC50, CC50, and SI have the following definitions.
(§4) Cell growth equals total cell count without any inhibitor after 72 hours minus initial cell count. Total cell counts after 72 hrs of growth range from 230 to 346% of initial cell counts depending on the cell line.
(§5) Total cell counts after 24 hrs of growth range from 103 to 109% of initial cell counts depending on the cell line.
(§6) SI: Selectivity Index is the ratio CC50/EC50.

[5] = test system: ZR-75-1; experiment: MTT cell proliferation assay, ZR-75-1; assay type: cell-based; details: Homo sapiens, ZR-75-1, 72 h, concentration reducing cell growth by 50% after 72 hours, 1% DMSO
Experimental: as §2, §3, §4, §5, §6

[6] = in vitro; details: human, NCI H2052 cells
[7] = MTT cell proliferation assay, PFSK-1; assay type: cell-based; details: human, PFSK-1 cells, concentration causing 50% cell death of initial cell count over 24 hours, 1% DMSO
Experimental: (§7) The antitumor activities of the compounds of the invention were evaluated by a cellular proliferation assay. […] The cleavage reaction form a purple formazan crystals which is largely impermeable to cell membranes resulting in its accumulation within healthy cells. Solubilisation of the cells by addition of a detergent liberates and solubilizes the formazan crystals. The number of surviving cells is directly proportional to the level of the formazan product created. The color can then be quantified spectrophotometrically. The production of purple formazan in cells treated with a compound is measured relative to the production in control cells, and dose-response curves can be generated. This assay measures the cell proliferation rate and conversely, when metabolic events lead to apoptosis or necrosis, the reduction in cell viability, thus also allowing the evaluation of the cytotoxicity of the analogues synthesized in the laboratory.
as §3
(§8) Cell growth equals total cell count without any inhibitor after 72 hours minus initial cell count.
as §6

[8] = test system: PFSK-1; experiment: MTT cell proliferation assay, PFSK-1; assay type: cell-based; details: Homo sapiens, PFSK-1, 72 h, concentration reducing cell growth by 50% after 72 hours, 1% DMSO
Experimental: as §7, §3, §8, §6

[9] = in vitro; details: human, MOLT-4 cells

Sequence of Thermotoga maritima thymidine kinase (Q9WYN2 whole entry): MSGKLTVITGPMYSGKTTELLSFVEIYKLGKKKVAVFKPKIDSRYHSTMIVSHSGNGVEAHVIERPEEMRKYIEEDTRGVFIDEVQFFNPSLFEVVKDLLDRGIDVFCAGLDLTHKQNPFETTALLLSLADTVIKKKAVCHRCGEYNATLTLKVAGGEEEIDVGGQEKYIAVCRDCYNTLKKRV

Row | Compound | T. maritima TK substrate phosphorylation [1] | D. melanogaster dNK substrate phosphorylation [2] | CC50 at 24 h [3] | CC50 at 24 h [4] | EC50 [5] | CC50 at 24 h [6] | CC50 at 24 h [7] | EC50 [8] | CC50 at 24 h [9] | T. maritima TK substrate phosphorylation ([1]; listed as LCB-1004-1) | D. melanogaster dNK substrate phosphorylation ([2]; listed as LCB-1004-1) | D. melanogaster dNK substrate phosphorylation ([2]; listed as LCB-1007-1) | T. maritima TK substrate phosphorylation ([1]; listed as LCB-1023-1) | D. melanogaster dNK substrate phosphorylation ([2]; listed as LCB-1023-1)
1 | Cc1cn([C@H]2CC(C)(CO)[C@@H](CO)O2)c(=O)[nH]c1=O (mixture of isomers) [LCB-1007-2] | 2.2 10^−3 μmol/min mg | 0.74 10^6 μmol/min mg | – | – | – | – | – | – | – | – | – | – | – | –
2 | COC(=O)C1(C)C[C@@H](n2cc(C)c(=O)[nH]c2=O)O[C@@H]1CO (mixture of isomers) [LCB-1001] | <1 10^−3 μmol/min mg | <0.1 10^6 μmol/min mg | > 500 µM | > 500 µM | > 500 µM | 295 µM | > 500 µM | > 500 µM | – | – | – | – | – | –
3 | COC(=O)C1(C)C[C@H](n2cc(C)c(=O)[nH]c2=O)O[C@@H]1CO (mixture of isomers) [LCB-1009-2] | 4.9 10^−3 μmol/min mg | 3.44 10^6 μmol/min mg | – | – | – | – | – | – | – | – | – | – | – | –
4 | C[C@@]12CC(n3cc(F)c(N)nc3=O)O[C@@H]1COC2=O (mixture of isomers) [LCB-1028] | – | – | > 500 µM | > 500 µM | > 500 µM | > 500 µM | > 500 µM | > 500 µM | > 500 µM | – | – | – | – | –
5 | COC(=O)C1(C)C[C@@H](n2ccc(=O)[nH]c2=O)O[C@@H]1CO (mixture of isomers) [LCB-1002] | 2.2 10^−3 μmol/min mg | <0.1 10^6 μmol/min mg | 493 µM | > 500 µM | > 500 µM | 423 µM | > 500 µM | > 500 µM | – | – | – | – | – | –
6 | CC1(CO)C[C@@H](n2ccc(=O)[nH]c2=O)O[C@@H]1CO (mixture of isomers) [LCB-1008] | <1 10^−3 μmol/min mg | 0.36 10^6 μmol/min mg | > 500 µM | > 500 µM | > 500 µM | > 500 µM | > 500 µM | > 500 µM | – | – | – | – | – | –
7 | COC(=O)C1(C)CC(n2cc(C)c(=O)[nH]c2=O)OC1CO (racemic) [LCB-1010-2, (±) methyl 2-(hydroxymethyl)-3-methyl-5-(5-methyl-2,4-dioxo-3,4-dihydropyrimidin-1(2H)-yl)tetrahydrofuran-3-carboxylate] | 5.6 10^−3 μmol/min mg | 2.13 10^6 μmol/min mg | – | – | – | – | – | – | – | – | – | – | – | –
8 | CC1(C(N)=O)CC(n2cc(F)c(N)nc2=O)O[C@@H]1CO (mixture of isomers) [LCB-1030] | – | – | > 500 µM | > 500 µM | > 500 µM | > 500 µM | > 500 µM | > 500 µM | > 500 µM | – | – | – | – | –
9 | Cc1cn([C@@H]2CC(C)(CO)[C@@H](CO)O2)c(=O)[nH]c1=O (mixture of isomers) [LCB-1004-2] | <1 10^−3 μmol/min mg | 3.7 10^6 μmol/min mg | – | – | – | – | – | – | – | – | – | – | – | –
10 | Cc1cn([C@H]2CC(C)(CO)[C@@H](CO)O2)c(=O)[nH]c1=O (mixture of isomers) [LCB-1032, (±) 1-(-4,5-bis(hydroxymethyl)-4-methyltetrahydrofuran-2-yl)-5-methylpyrimidine-2,4(1H,3H)-dione] | – | – | – | – | – | – | – | – | > 500 µM | – | – | – | – | –
11 | Cc1cn([C@@H]2CC(C)(CO)[C@@H](CO)O2)c(=O)[nH]c1=O (mixture of isomers) [LCB-1004] | – | – | > 500 µM | > 500 µM | 420 µM | > 500 µM | > 500 µM | > 500 µM | – | 4.1 10^−3 μmol/min mg | 4.2 10^6 μmol/min mg | – | – | –
12 | Cc1cn([C@H]2CC(C)(CO)[C@@H](CO)O2)c(=O)[nH]c1=O (mixture of isomers) [LCB-1007] | 2.2 10^−3 μmol/min mg | – | > 500 µM | > 500 µM | 460 µM | > 500 µM | > 500 µM | > 500 µM | – | – | – | 0.84 10^6 μmol/min mg | – | –
13 | COC(=O)C1(C)C[C@H](n2ccc(=O)[nH]c2=O)O[C@@H]1CO (mixture of isomers) [LCB-1005] | <1 10^−3 μmol/min mg | <0.1 10^6 μmol/min mg | > 500 µM | > 500 µM | > 500 µM | > 500 µM | > 500 µM | > 500 µM | – | – | – | – | – | –
14 | COC(=O)C1(C)C[C@H](n2cc(F)c(=O)[nH]c2=O)O[C@@H]1CO (mixture of isomers) [LCB-1023, 5-(5-Fluoro-2,4-dioxo-3,4-dihydro-2H-pyrimidin-1-yl)-2-hydroxymethyl-3-methyl-tetrahydro-furan-3-carhoxylic acid methyl ester] | – | – | – | – | – | – | – | – | – | – | – | – | 2.1 10^−3 μmol/min mg | 0.33 10^6 μmol/min mg
15 | CC1(CO)C[C@H](n2ccc(=O)[nH]c2=O)O[C@@H]1CO (mixture of isomers) [LCB-1006] | 2.7 10^−3 μmol/min mg | 0.22 10^6 μmol/min mg | > 500 µM | > 500 µM | > 500 µM | > 500 µM | > 500 µM | > 500 µM | – | – | – | – | – | –
16 | C[C@@]12CC(n3ccc(N)nc3=O)O[C@@H]1COC2=O (mixture of isomers) [LCB-1029] | – | – | > 500 µM | > 500 µM | > 500 µM | > 500 µM | > 500 µM | > 500 µM | > 500 µM | – | – | – | – | –
17 | Cc1cn([C@H]2C[C@H](O)[C@@H](CO)O2)c(=O)[nH]c1=O [Thymidine, reference compound] | 830 10^−3 μmol/min mg | – | – | – | – | – | – | – | – | – | – | – | – | –
